Key:
Test in all cases: relative viability (nuclei count vs DMSO), 5 days (fraction); higher = more cells survive
R406 + Lapatinib = compound: COc1cc(Nc2ncc(F)c(Nc3ccc4c(n3)NC(=O)C(C)(C)O4)n2)cc(OC)c1OC [R406] + CS(=O)(=O)CCNCc1ccc(-c2ccc3ncnc(Nc4ccc(OCc5cccc(F)c5)c(Cl)c4)c3c2)o1 [Lapatinib] (partner 2 µM)
Method in brief: (§1)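 Lung cancer cell lines, seeded in 1536-well plates, were treated the following day by pin tool with a single drug or with five library-drug doses (not always all listed) in √10 steps on top of a fixed anchor-drug dose. Cells were fixed and nuclei stained in one step after 5 days, and nuclei were counted. Relative viability is the nuclei count for treated wells divided by that for vehicle wells, reported as medians of duplicate plates.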

R406 + Navitoclax = compound: COc1cc(Nc2ncc(F)c(Nc3ccc4c(n3)NC(=O)C(C)(C)O4)n2)cc(OC)c1OC [R406] + CC1(C)CCC(c2ccc(Cl)cc2)=C(CN2CCN(c3ccc(C(=O)NS(=O)(=O)c4ccc(N[C@H](CCN5CCOCC5)CSc5ccccc5)c(S(=O)(=O)C(F)(F)F)c4)cc3)CC2)C1 [Navitoclax] (partner 0.5 µM)
Method in brief: as §1

Daporinad + Luminespib = compound: O=C(/C=C/c1cccnc1)NCCCCC1CCN(C(=O)c2ccccc2)CC1 [Daporinad] + CCNC(=O)c1noc(-c2cc(C(C)C)c(O)cc2O)c1-c1ccc(CN2CCOCC2)cc1 [Luminespib] (partner 0.01 µM)
Method in brief: as §1

Daporinad + Dasatinib = compound: O=C(/C=C/c1cccnc1)NCCCCC1CCN(C(=O)c2ccccc2)CC1 [Daporinad] + Cc1nc(Nc2ncc(C(=O)Nc3c(C)cccc3Cl)s2)cc(N2CCN(CCO)CC2)n1 [Dasatinib] (partner 0.075 µM)
Method in brief: as §1

Row | Cell Line | relative viability (R406 + Lapatinib; first compound 0.08 µM) | relative viability (R406 + Lapatinib; first compound 0.253 µM) | relative viability (R406 + Lapatinib; first compound 0.8 µM) | relative viability (R406 + Lapatinib; first compound 2.53 µM) | relative viability (R406 + Lapatinib; first compound 8 µM) | relative viability (R406 + Navitoclax; first compound 0.08 µM) | relative viability (R406 + Navitoclax; first compound 0.253 µM) | relative viability (R406 + Navitoclax; first compound 0.8 µM) | relative viability (R406 + Navitoclax; first compound 2.53 µM) | relative viability (R406 + Navitoclax; first compound 8 µM) | relative viability (Daporinad + Luminespib; first compound 0.0005 µM) | relative viability (Daporinad + Luminespib; first compound 0.001581 µM) | relative viability (Daporinad + Luminespib; first compound 0.005 µM) | relative viability (Daporinad + Luminespib; first compound 0.01581 µM) | relative viability (Daporinad + Dasatinib; first compound 0.0005 µM) | relative viability (Daporinad + Dasatinib; first compound 0.001581 µM) | relative viability (Daporinad + Dasatinib; first compound 0.005 µM) | relative viability (Daporinad + Dasatinib; first compound 0.01581 µM)
1 | NCI-H1975 | 0.779 | 1.01 | 1.14 | 0.221 | 0.169 | 1.02 | 1.2 | 1.19 | 0.503 | 0.237 | 0.206 | 0.262 | 0.183 | 0.3 | 0.336 | 0.364 | 0.356 | 0.38
2 | CAL-12T | 0.697 | 0.698 | 0.775 | 0.638 | 0.288 | 1.16 | 1.21 | 1.26 | 1.05 | 1.06 | 0.17 | 0.41 | 0.545 | 0.193 | 0.342 | 0.409 | 0.37 | 0.134
3 | NCI-H2342 |  |  |  |  |  |  |  |  |  |  | 0.668 | 0.786 | 0.707 | 0.631 | 0.316 | 0.299 | 0.339 | 0.295
4 | HCC-44 | 0.899 | 1.08 | 1.12 | 0.624 | 0.619 | 0.915 | 1.04 | 1.05 | 1.04 | 0.316 | 1.07 | 1.12 | 0.942 | 1.28 |  |  |  | 
5 | EKVX | 0.247 | 0.239 | 0.18 | 0.104 | 0.176 | 0.814 | 1.03 | 0.932 | 0.77 | 0.521 | 0.889 | 0.933 | 0.839 | 0.922 | 0.47 | 0.535 | 0.619 | 0.838
6 | NCI-H1703 | 1.52 |  | 1.03 | 0.218 | 0.17 | 1.17 | 1.05 | 1.23 | 0.189 | 0.149 |  |  |  |  |  |  |  | 
7 | Calu-6 | 1.02 | 1.25 | 1.09 | 0.745 | 0.476 | 0.798 | 0.809 | 0.949 | 0.579 | 0.316 |  |  |  |  |  |  |  | 
8 | EBC-1 | 0.22 | 0.226 | 0.216 | 0.233 | 0.197 | 0.433 | 0.403 | 0.422 | 0.317 | 0.189 |  |  |  |  |  |  |  | 
9 | HCC-78 | 0.673 | 0.919 | 0.888 | 0.649 | 0.354 | 0.729 | 0.899 | 0.876 | 0.508 | 0.43 |  |  |  |  | 0.363 |  | 0.328 | 0.379
10 | IA-LM | 0.99 | 1.26 | 0.797 | 1.01 | 0.777 | 0.799 | 1.03 | 0.946 | 1.02 | 0.843 |  |  |  |  |  |  |  | 
11 | NCI-H441 |  |  |  |  |  |  | 0.584 | 0.818 |  | 0.446 | 0.36 | 0.324 | 0.367 | 0.343 | 0.665 | 0.614 | 0.618 | 0.662
12 | NCI-H1623 |  |  |  |  |  |  |  |  |  |  | 0.618 | 0.497 | 0.472 | 0.555 | 0.537 | 0.463 | 0.542 | 0.525
13 | NCI-H661 | 0.435 | 0.48 | 0.413 | 0.362 | 0.277 |  |  |  |  |  | 0.936 | 0.873 | 0.558 | 0.423 | 0.939 | 1 | 0.518 | 0.388
14 | NCI-H650 | 0.877 | 1.04 | 1.02 | 0.243 | 0.52 |  |  |  |  |  | 0.82 | 0.825 | 0.734 | 0.953 | 0.391 | 0.395 | 0.473 | 0.53
15 | ChaGo-K-1 |  |  |  |  |  | 0.969 | 1.16 | 1.01 | 0.947 | 0.44 | 0.529 | 0.508 | 0.425 | 0.414 | 0.672 | 0.5 | 0.476 | 0.278
16 | NCI-H522 |  |  |  |  |  |  |  |  |  |  | 1.28 | 1.13 | 0.971 | 0.846 | 1.01 | 0.924 | 0.88 | 0.843
17 | NCI-H1299 | 1.01 | 0.982 | 0.98 | 0.933 | 0.721 | 1.01 | 1.06 | 1.05 | 1.11 | 0.995 |  |  |  |  |  |  |  | 
18 | SW 900 |  |  |  |  |  |  |  |  |  |  | 0.19 | 0.159 | 0.181 | 0.17 | 0.53 | 0.574 | 0.716 | 0.436
19 | NCI-H358 | 0.407 | 0.441 | 0.47 | 0.375 | 0.2 |  |  |  |  |  | 0.27 | 0.305 | 0.599 | 0.359 | 0.135 | 0.174 | 0.175 | 0.158
20 | HCC-366 | 0.908 | 1.15 | 1.17 |  | 0.356 | 0.855 | 1.18 | 1.16 |  | 0.663 |  |  |  |  | 0.697 | 0.738 | 0.646 | 0.738
21 | A549 | 0.882 | 1.04 | 1.1 | 0.545 | 0.215 | 0.932 | 1.2 | 1.26 | 1.31 | 0.675 |  |  |  |  |  |  |  | 
22 | NCI-H1563 | 0.886 | 1.06 | 1.06 | 0.506 | 0.574 |  |  |  |  |  | 0.535 | 0.582 | 0.493 | 0.485 | 0.43 | 0.423 | 0.497 | 0.458
23 | ABC-1 | 0.85 | 1.07 | 1.09 | 0.875 | 0.705 |  |  |  |  |  | 0.524 | 0.583 | 0.527 | 0.498 | 0.481 | 0.595 | 0.511 | 0.42
24 | LCLC-103H |  |  |  |  |  |  |  |  |  |  | 0.988 | 0.937 | 1.03 | 1.06 | 0.546 | 0.411 | 0.465 | 0.502
